This passage reports Drug uptake results from ChEMBL document CHEMBL4152384, “Pyrtriazoles, a Novel Class of Store-Operated Calcium Entry Modulators: Discovery, Biological Profiling, and in Vivo Proof-of-Concept Efficacy in Acute Pancreatitis” (J Med Chem, 2018).

This data set is described as follows: Drug level in CD1 mouse liver microsomes treated with 3-(1-(4-(4-((Pentan-2-yloxy)carbonyl)-5-(trifluoromethyl)-1H-pyrazol-1-yl)-phenyl)-1H-1,2,3-triazol-4-yl)benzoic acid at 50 uM after 60 mind by mass spectroscopic analysis. Type of data set: ADME, microsome. On the technique in general: Liver microsomes are vesicles of endoplasmic reticulum, rich in cytochrome P450 enzymes.

As for `CCCC(C)OC(=O)c1cnn(-c2ccc(-n3cc(-c4cccc(C(=O)O[C@@H]5O[C@H](C(=O)O)[C@@H](O)[C@H](O)[C@H]5O)c4)nn3)cc2)c1C(F)(F)F` (stereo partly specified), the Drug uptake result is “Active”.
